# Test results from ChEMBL document CHEMBL1201862, “PubChem BioAssay data set” (2004).
#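 A five-concentration, 48-hour dose response in 96-well plates underlies each endpoint, interpolated linearly between surrounding concentrations. The concentration for 50% growth inhibition is given as GI50.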 The source made the active and inactive calls. Rule as the data show it: active = GI50 up to about 1.1 µM and inactive = higher.
# Assays:
# Test in all cases: DTP human tumour cell line panel, 48 h
# [1] = system: 786-0
# [2] = system: A498
# [3] = system: A549
# [4] = system: ACHN
# [5] = system: BT-549
# [6] = system: CAKI-1
# [7] = system: CCRF-CEM
# [8] = system: COLO 205
# [9] = system: DU-145
# [10] = system: EKVX
# [11] = system: HCC 2998
# [12] = system: HCT-116
# [13] = system: HCT-15
# [14] = system: HL-60
# [15] = system: HOP-62
# [16] = system: HT-29
# [17] = system: Hs-578T
# [18] = system: IGROV-1
# [19] = system: K562
# [20] = system: KM12
# [21] = system: LOX IMVI
# [22] = system: M14
# [23] = system: MCF7
# [24] = system: MDA-MB-231
# [25] = system: MDA-MB-435
# [26] = system: MDA-N
# [27] = system: MOLT-4
# [28] = system: Malme-3M
# [29] = system: NCI-H226
# [30] = system: NCI-H23
# [31] = system: NCI-H460
# [32] = system: NCI-H522
# [33] = system: NCI/ADR-RES
# [34] = system: OVCAR-3
# [35] = system: OVCAR-4
# [36] = system: OVCAR-5
# [37] = system: OVCAR-8
# [38] = system: PC-3
# [39] = system: RPMI-8226
# [40] = system: RXF 393
# [41] = system: SF-268
# [42] = system: SF-295
# [43] = system: SF-539
# [44] = system: SK-MEL-28
# [45] = system: SK-MEL-2
# [46] = system: SK-MEL-5
# [47] = system: SK-OV-3
# [48] = system: SN12C
# [49] = system: SNB-19
# [50] = system: SNB-75
# [51] = system: SR
# [52] = system: SW-620
# [53] = system: T47D
# [54] = system: TK-10
# [55] = system: U-251
# [56] = system: UACC-257
# [57] = system: UACC-62
# [58] = system: UO-31
# [59] = system: HOP-92
compound,measurement,setting,value
C[N+](C)([O-])C12CC3CC(CC(C3)C1)C2,GI50,[1],25.5 µM (inactive)
same,GI50,[2],22 µM (inactive)
same,GI50,[3],25.8 µM (inactive)
same,GI50,[4],26.4 µM (inactive)
same,GI50,[5],34 µM (inactive)
same,GI50,[6],> 100 µM (inactive)
same,GI50,[7],34.1 µM (inactive)
same,GI50,[8],27 µM (inactive)
same,GI50,[9],37.2 µM (inactive)
same,GI50,[10],21.4 µM (inactive)
same,GI50,[11],29.4 µM (inactive)
same,GI50,[12],23.9 µM (inactive)
same,GI50,[13],30.6 µM
same,GI50,[14],44.6 µM (inactive)
same,GI50,[15],24 µM (inactive)
same,GI50,[16],35.6 µM (inactive)
same,GI50,[17],55.6 µM (inactive)
same,GI50,[18],25.3 µM (inactive)
same,GI50,[19],29.4 µM (inactive)
same,GI50,[20],26.8 µM (inactive)
same,GI50,[21],27.2 µM (inactive)
same,GI50,[22],25.7 µM (inactive)
same,GI50,[23],33.1 µM (inactive)
same,GI50,[24],> 100 µM (inactive)
same,GI50,[25],28.4 µM (inactive)
same,GI50,[26],31.8 µM (inactive)
same,GI50,[27],29.3 µM (inactive)
same,GI50,[28],54.3 µM (inactive)
same,GI50,[29],55.2 µM (inactive)
same,GI50,[30],28.2 µM (inactive)
same,GI50,[31],43.7 µM (inactive)
same,GI50,[32],27.2 µM (inactive)
same,GI50,[33],31.6 µM (inactive)
same,GI50,[34],16.4 µM (inactive)
same,GI50,[35],33.1 µM (inactive)
same,GI50,[36],39.6 µM (inactive)
same,GI50,[37],40.1 µM (inactive)
same,GI50,[38],22.4 µM (inactive)
same,GI50,[39],29.9 µM (inactive)
same,GI50,[40],37.5 µM (inactive)
same,GI50,[41],38.3 µM (inactive)
same,GI50,[42],30 µM (inactive)
same,GI50,[43],23.4 µM (inactive)
same,GI50,[44],32.4 µM (inactive)
same,GI50,[45],22.6 µM (inactive)
same,GI50,[46],27.2 µM (inactive)
same,GI50,[47],61.9 µM (inactive)
same,GI50,[48],33.7 µM (inactive)
same,GI50,[49],46.3 µM (inactive)
same,GI50,[50],28.2 µM (inactive)
same,GI50,[51],41.3 µM (inactive)
same,GI50,[52],41.8 µM (inactive)
same,GI50,[53],26.9 µM (inactive)
same,GI50,[54],20.9 µM (inactive)
same,GI50,[55],37.4 µM (inactive)
same,GI50,[56],39.2 µM (inactive)
same,GI50,[57],20.1 µM (inactive)
same,GI50,[58],13.9 µM (inactive)
O=[N+]([O-])c1ccc(S[C@@H]2[C@H]3c4c(-c5ccccc5)[nH]c(-c5ccccc5)c4[C@@H]2C[C@H]3Cl)cc1,GI50,[1],2.62 µM (inactive)
same,GI50,[2],4.82 µM (inactive)
same,GI50,[3],2.74 µM (inactive)
same,GI50,[4],3.7 µM (inactive)
same,GI50,[5],3.66 µM (inactive)
same,GI50,[6],3.38 µM (inactive)
same,GI50,[8],6.17 µM (inactive)
same,GI50,[9],3.31 µM (inactive)
same,GI50,[12],1.76 µM (inactive)
same,GI50,[13],2.39 µM
same,GI50,[14],3.17 µM (inactive)
same,GI50,[15],3.56 µM (inactive)
same,GI50,[59],0.895 µM (active)
same,GI50,[16],3.37 µM (inactive)
same,GI50,[17],5.08 µM (inactive)
same,GI50,[18],2.79 µM (inactive)
same,GI50,[20],3.05 µM (inactive)
same,GI50,[21],3.1 µM (inactive)
same,GI50,[22],3.23 µM (inactive)
same,GI50,[23],2.31 µM (inactive)
same,GI50,[24],4.8 µM (inactive)
same,GI50,[25],3.58 µM (inactive)
same,GI50,[26],2.89 µM (inactive)
same,GI50,[28],10.6 µM (inactive)
same,GI50,[29],6.71 µM (inactive)
same,GI50,[30],2.38 µM (inactive)
same,GI50,[31],2.4 µM (inactive)
same,GI50,[32],2.9 µM (inactive)
same,GI50,[33],2.87 µM (inactive)
same,GI50,[34],3.33 µM (inactive)
same,GI50,[35],1.6 µM (inactive)
same,GI50,[36],9.95 µM (inactive)
same,GI50,[37],4.38 µM (inactive)
same,GI50,[38],3.8 µM (inactive)
same,GI50,[40],0.938 µM (active)
same,GI50,[41],2.68 µM (inactive)
same,GI50,[42],3.71 µM (inactive)
same,GI50,[43],6.75 µM (inactive)
same,GI50,[44],18.1 µM (inactive)
same,GI50,[45],11.2 µM (inactive)
same,GI50,[46],4.66 µM (inactive)
same,GI50,[47],9.98 µM (inactive)
same,GI50,[48],2.94 µM (inactive)
same,GI50,[49],4.6 µM (inactive)
same,GI50,[50],2.15 µM (inactive)
same,GI50,[51],1.14 µM (inactive)
same,GI50,[52],3.37 µM (inactive)
same,GI50,[53],1.93 µM (inactive)
same,GI50,[54],4.99 µM (inactive)
same,GI50,[55],4.17 µM (inactive)
same,GI50,[56],14.8 µM (inactive)
same,GI50,[57],2.83 µM (inactive)
same,GI50,[58],1.62 µM (inactive)
Cc1cc(C)c(-n2[nH]c(=O)n(C)c2=O)c(C)c1,GI50,[1],> 100 µM (inactive)
same,GI50,[2],> 100 µM (inactive)
same,GI50,[3],> 100 µM (inactive)
same,GI50,[5],> 100 µM (inactive)
same,GI50,[6],> 100 µM (inactive)
same,GI50,[7],> 100 µM (inactive)
same,GI50,[8],> 100 µM (inactive)
same,GI50,[9],> 100 µM (inactive)
same,GI50,[10],> 100 µM (inactive)
same,GI50,[11],> 100 µM (inactive)
same,GI50,[12],> 100 µM (inactive)
same,GI50,[13],> 100 µM
same,GI50,[14],> 100 µM (inactive)
same,GI50,[16],> 100 µM (inactive)
same,GI50,[17],> 100 µM (inactive)
same,GI50,[18],> 100 µM (inactive)
same,GI50,[19],> 100 µM (inactive)
same,GI50,[20],> 100 µM (inactive)
same,GI50,[21],> 100 µM (inactive)
same,GI50,[22],> 100 µM (inactive)
same,GI50,[23],> 100 µM (inactive)
same,GI50,[24],> 100 µM (inactive)
same,GI50,[25],> 100 µM (inactive)
same,GI50,[26],> 100 µM (inactive)
same,GI50,[27],> 100 µM (inactive)
same,GI50,[28],> 100 µM (inactive)
same,GI50,[29],> 100 µM (inactive)
same,GI50,[30],> 100 µM (inactive)
same,GI50,[31],> 100 µM (inactive)
same,GI50,[32],> 100 µM (inactive)
same,GI50,[33],> 100 µM (inactive)
same,GI50,[34],> 100 µM (inactive)
same,GI50,[35],> 100 µM (inactive)
same,GI50,[36],> 100 µM (inactive)
same,GI50,[37],> 100 µM (inactive)
same,GI50,[38],> 100 µM (inactive)
same,GI50,[39],> 100 µM (inactive)
same,GI50,[40],> 100 µM (inactive)
same,GI50,[41],> 100 µM (inactive)
same,GI50,[43],> 100 µM (inactive)
same,GI50,[44],> 100 µM (inactive)
same,GI50,[45],> 100 µM (inactive)
same,GI50,[46],> 100 µM (inactive)
same,GI50,[47],> 100 µM (inactive)
same,GI50,[48],> 100 µM (inactive)
same,GI50,[49],> 100 µM (inactive)
same,GI50,[50],> 100 µM (inactive)
same,GI50,[51],> 100 µM (inactive)
same,GI50,[52],> 100 µM (inactive)
same,GI50,[53],> 100 µM (inactive)
same,GI50,[54],> 100 µM (inactive)
same,GI50,[55],> 100 µM (inactive)
same,GI50,[56],> 100 µM (inactive)
same,GI50,[57],> 100 µM (inactive)
same,GI50,[58],> 100 µM (inactive)
